{
  "source": "paper PMC9266914",
  "about": "“Broad Spectrum Functional Activity of Structurally Related Monoanionic Au(III) Bis(Dithiolene) Complexes” (International Journal of Molecular Sciences, 2022)",
  "key": {"[1]": {"system": "A2780 ovarian cancer cells", "test": "MTT cytotoxicity assay in A2780 (cisplatin sensitive) ovarian cancer cells", "type": "cell-based, human", "method_in_brief": "(§1)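 Cells in RPMI-1640 with 10% FBS exposed to complexes at 0.01–100 μM for 24 and/or 48 h at 37 °C. Viability by colorimetric MTT; IC50 derived from dose–response curves.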"}, "E. coli ATCC25922": {"system": "E. coli ATCC25922", "test": "MIC determination, E. coli", "type": "cell-based, Escherichia coli", "conditions": "MH broth, 22 h, 37 °C", "description": "The bacterial strains Escherichia coli ATCC25922 and Staphylococcus aureus Newman were used in this work and maintained in Lennox Broth (LB) solid medium, composed of 10 g/L tryptone, 5 g/L yeast extract, 5 g/L NaCl and 20 g/L agar. The fungal strains Candida albicans SC5134 and C. glabrata CBS138 were used in this work and maintained in YPD solid medium, composed of 20 g/L glucose, 20 g/L peptone, 10 g/L yeast extract and 15 g/L agar. The strains were isolated from human infections.\nThe antimicrobial activity of the complexes towards the bacterial and fungal strains was assessed by the determination of the Minimal Inhibitory Concentration (MIC) of each complex towards the indicated microbial strains, based on standard methods, and as previously described. […] Serial 1:2 dilutions of stock solutions were prepared for each complex in Mueller–Hinton (MH) broth (Fluka Analytical) or RPMI-1640 medium (Sigma) supplemented with 20 g/L glucose and buffered with 0.165 M morpholinepropanesulphonic acid (RPMIG) to pH 7.0. Solutions prepared with MH were used for testing bacteria, while those prepared with RPMIG were used for testing fungi. For antibacterial activity assays, the final concentrations ranged from 250 to 0.24 μg/mL (when stock solution final concentration was 10 mg/mL), 125 μg/mL to 0.12 μg/mL (when stock solution final concentration was 5 mg/mL) and 62.5 to 0.06 μg/mL (when stock solution final concentration was 2.5 mg/mL). For antifungal assays, the final concentrations ranged from 125 μg/mL to 0.12 μg/mL (when stock solution final concentration was 10 mg/mL), 62.5 to 0.06 μg/mL (when stock solution final concentration was 5 mg/mL) and 31.25 to 0.03 μg/mL (when stock solution final concentration was 2.5 mg/mL). Then, 100 μL aliquots of adequately diluted bacterial suspensions of S. aureus Newman or E. coli ATCC 25922 were mixed with the MH serially diluted complexes aliquots to obtain 5 × 10^5 CFU/mL. In the case of fungi, cultures were diluted to obtain a final optical density of 0.025, measured at 530 nm (OD530). Bacterial suspensions were prepared from cultures grown for 5 h in MH broth at 37 °C and 250 rev·min^−1 and adequately diluted with fresh MH medium, while fungal suspensions were prepared from overnight cultures grown in YPD broth at 30 °C and 250 rev.min^−1 and diluted in buffered RPMIG. After 22 h of incubation at 37 °C (bacteria) or 24 h at 35 °C (fungi), the wells’ content was resuspended by pipetting and the OD640 (bacteria) or OD530 (fungi) were measured in a SPECTROstar Nano microplate reader (BMG Labtech).\nAt least three independent experiments were performed in duplicate for each complex under study. […] Positive (no complex) and negative controls (no inoculum) were performed for each experiment. The effect of 5% (V/V) DMSO on microbial growth was also assessed."}, "[2]": {"system": "P. falciparum NF54 blood stage", "test": "In vitro activity against the blood stage of P. falciparum NF54 (SYBR green flow cytometry)", "type": "cell-based, Plasmodium falciparum", "conditions": "48 h, read-out: IC50 PfNF54", "experimental": "Ring-stage synchronized cultures of PfNF54 at 2.5% hematocrit and at approximately 1% parasitemia were incubated with gold complexes or DMSO (vehicle control) in 96 well-plates, for 48 h, at 37 °C in a 5% CO2 and 5% O2 atmosphere. Stock solutions of Chloroquine (positive control), [P][AuSEt(=S)] and [P][AuSEt(=Se)] were prepared in DMSO. Working solutions were prepared from the stock solutions in complete malaria culture medium (CMCM), which consists of RPMI 1640 supplemented with 25 mM HEPES, 2.4 mM L-glutamine, 50 μg/mL gentamicin, 0.5% w/v Albumax, 11 mM glucose, 1.47 mM hypoxanthine and 37.3 mM NaHCO3. For each measurement, 5 µL of the culture (approximately 800,000 cells) was stained with the DNA-specific dye SYBR green I at 1×. After 20 min of incubation, in the dark, the stained sample was analyzed by flow cytometry. For each flow cytometric measurement, approximately 100,000 events were analyzed. All samples were analyzed in triplicate and two independent experiments were performed."}, "[3]": {"system": "OVCAR8 ovarian cancer cells", "test": "MTT cytotoxicity assay in OVCAR8 (cisplatin resistant) ovarian cancer cells", "type": "cell-based, human", "conditions": "48 h incubation", "method_in_brief": "as §1"}, "HIV-1 SG3.1": {"system": "HIV-1 SG3.1", "test": "Single-round viral infectivity assay in TZM-bl reporter cells", "type": "cell-based", "conditions": "SG3.1 isolate, 48 h, in words", "experimental": "The HIV-1 SG3.1 subtype B strain was obtained by transfection of HEK293T cells with pSG3.1 plasmid using jetPrime transfection reagent (Polyplus-tranfection SA, Illkirch, France) according to the manufacturer’s instructions. The 50% tissue culture infectious dose (TCID50) of the virus was determined in a single-round viral infectivity assay using a luciferase reporter gene assay in TZM-bl cells and calculated using the statistical method of Reed and Muench.\nThe antiviral activity of Auranofin, [P][AuSEt(=S)] and [P][AuSBu(=S)] compounds was determined in a single-round viral infectivity assay using TZM-bl reporter cells, as previously described. Briefly, TZM-bl cells were infected with 200 TCID50 of SG3.1 in the presence of serial-fold dilutions of the compounds in growth medium, supplemented with DEAE-dextran. After 48 h of infection, luciferase expression was quantified with Pierce Firefly Luc One-Step Glow Assay Kit (ThermoFisher Scientific, Rockford, IL, USA) according to the manufacturer’s instructions.\nAt least two independent experiments were performed for each antiviral activity analysis. The assay was set up in triplicate wells. Virus controls and cell controls were used."}, "[4]": {"conditions": "24 h incubation, read-out: IC50 A2780, 24 h"}, "[5]": {"conditions": "48 h incubation, read-out: IC50 A2780, 48 h"}},
  "note": "Where “and” joins values, the source holds several entries; their conditions need not be identical. Equal entries are not always repeated. Where two headings read alike, the source gives them in different places.",
  "data": [
    {"compound": "CCn1c2c(sc1=[Se])[S][Au-]1([S]c3sc(=[Se])n(CC)c3[S]1)[S]2.c1ccc([P+](c2ccccc2)(c2ccccc2)c2ccccc2)cc1", "note": "[[P][AuSEt(=Se)]]", "values": [
      {"measurement": "IC50", "setting": "[1]; [4]", "value": "710 ± 120", "unit": "nM"},
      {"measurement": "IC50", "setting": "[1]; [5]", "value": "220 ± 110", "unit": "nM"},
      {"measurement": "MIC E. coli ATCC25922", "setting": "E. coli ATCC25922", "value": ">125", "unit": "µg/mL"},
      {"measurement": "IC50", "setting": "[2]", "value": "1000 ± 391", "unit": "nM"},
      {"measurement": "IC50", "setting": "[3]", "value": "970 ± 180", "unit": "nM"}
    ]},
    {"compound": "CC(=O)OC[C@H]1O[C@@H]([S-])[C@H](OC(C)=O)[C@@H](OC(C)=O)[C@@H]1OC(C)=O.CCP(CC)CC.[Au+]", "note": "[Auranofin, reference compound]", "values": [
      {"measurement": "anti-HIV-1 activity", "setting": "HIV-1 SG3.1", "value": "none of the compounds presented anti-HIV-1 activity"},
      {"measurement": "IC50", "setting": "[1]; [4]", "value": "2010 ± 710", "unit": "nM"},
      {"measurement": "MIC E. coli ATCC25922", "setting": "E. coli ATCC25922", "value": "35.5 µg/mL and 35.5 ± 0.6 µg/mL"},
      {"measurement": "IC50", "setting": "[3]", "value": "1040 ± 410", "unit": "nM"}
    ]},
    {"compound": "CCCCn1c2c(sc1=S)[S][Au-]1([S]c3sc(=S)n(CCCC)c3[S]1)[S]2.c1ccc([P+](c2ccccc2)(c2ccccc2)c2ccccc2)cc1", "note": "[[P][AuSBu(=S)]]", "values": [
      {"measurement": "anti-HIV-1 activity", "setting": "HIV-1 SG3.1", "value": "none of the compounds presented anti-HIV-1 activity"},
      {"measurement": "IC50", "setting": "[1]; [4]", "value": "1380 ± 280", "unit": "nM"},
      {"measurement": "IC50", "setting": "[1]; [5]", "value": "950 ± 50", "unit": "nM"},
      {"measurement": "MIC E. coli ATCC25922", "setting": "E. coli ATCC25922", "value": ">125", "unit": "µg/mL"},
      {"measurement": "IC50", "setting": "[3]", "value": "1410 ± 560", "unit": "nM"}
    ]},
    {"compound": "CCn1c2c(sc1=S)[S][Au-]1([S]c3sc(=S)n(CC)c3[S]1)[S]2.c1ccc([P+](c2ccccc2)(c2ccccc2)c2ccccc2)cc1", "note": "[[P][AuSEt(=S)]]", "values": [
      {"measurement": "anti-HIV-1 activity", "setting": "HIV-1 SG3.1", "value": "none of the compounds presented anti-HIV-1 activity"},
      {"measurement": "IC50", "setting": "[1]; [4]", "value": "580 ± 200", "unit": "nM"},
      {"measurement": "IC50", "setting": "[1]; [5]", "value": 180, "unit": "nM"},
      {"measurement": "MIC E. coli ATCC25922", "setting": "E. coli ATCC25922", "value": ">125", "unit": "µg/mL"},
      {"measurement": "IC50", "setting": "[2]", "value": "1060 ± 393", "unit": "nM"},
      {"measurement": "IC50", "setting": "[3]", "value": "850 ± 190", "unit": "nM"}
    ]},
    {"compound": "CC(C)n1c2c(sc1=S)[Se][Au-]1([Se]c3sc(=S)n(C(C)C)c3[Se]1)[Se]2.c1ccc([P+](c2ccccc2)(c2ccccc2)c2ccccc2)cc1", "note": "[[P][AuSeiPr(=S)]]", "values": [
      {"measurement": "IC50", "setting": "[1]; [4]", "value": "3740 ± 1220", "unit": "nM"},
      {"measurement": "IC50", "setting": "[1]; [5]", "value": "680 ± 180", "unit": "nM"},
      {"measurement": "MIC E. coli ATCC25922", "setting": "E. coli ATCC25922", "value": ">62.5", "unit": "µg/mL"},
      {"measurement": "IC50", "setting": "[3]", "value": "3860 ± 910", "unit": "nM"}
    ]}
  ]
}
